Our source for the IC50 values is US5618785A, “Peptide inhibitors of selectin binding” (Centocor, Inc., priority 1995, dated 1997).

The assay concerns P-selectin. The assay is described as follows: Inhibition of binding of human neutrophils to P-selectin (neutrophil adhesion to purified P-selectin immobilized on plastic wells). The conditions noted are these: P-selectin isolated from human platelets, plated at 5 micrograms/mL, myeloperoxidase readout, peptides tested 1.0 mM to 0.001 mM. The assay is classed as cell-based. An excerpt:
Peptides can be screened for their ability to inhibit adhesion to cells, for example, neutrophil adhesion to purified P-selectin immobilized on plastic wells, using the assay described by Geng, et al., Nature 343, 757-760 (1990).
Human neutrophils are isolated from heparinized whole blood by density gradient centrifugation on Mono-Poly resolving media, Flow Laboratories. Neutrophil suspensions are greater than 98% pure and greater than 95% viable by trypan blue exclusion. For adhesion assays, neutrophils are suspended at a concentration of 2×10^6 cells/mL in Hanks' balanced salt solution containing 1.26 mM Ca^2+ and 0.81 mM Mg^2+ (HBSS, Gibco) with 0.05 mg/mL human serum albumin (HBSS/HSA). Adhesion assays are conducted in triplicate in 96-well microtiter plates, Corning, incubated at 4° C. overnight with 50 microliters of various protein solutions.
P-selectin is isolated from human platelet lysates by immunoaffinity chromatography on antibody S12-Sepharose™ and ion-exchange chromatography on a Mono-Q™ column (FLPC, Pharmacia Fine Chemicals), as follows.
Outdated human platelet packs (100 units) obtained from a blood bank and stored at 4° C. are pooled, adjusted to 5 mM EDTA at pH 7.5, centrifuged at 4,000 rpm for 30 minutes in 1 liter bottles, then washed three times with 1 liter of 0.1M NaCl, 20 mM Tris pH 7.5 (TBS), 5 mM EDTA, 5 mM benzamidine.
The pellets are then resuspended in a minimum amount of wash buffer and made 1 mM in DIFP, then frozen in 50 mL screwtop tubes at -80° C. The frozen platelets are thawed and resuspended in 50 mL TBS, 5 mM benzamidine, 5 mM EDTA pH 7.5, […]. The suspension is frozen and thawed two times in a dry ice-acetone bath using a 600 mL lyophilizing flask, then homogenized in a glass/teflon mortar and pestle and made 1 mM in DIFP. The NaCl concentration is adjusted to 0.5M with a stock solution of 4M NaCl. After stirring the suspension at 4° C., it is centrifuged in polycarbonate tubes at 33,000 rpm for 60 minutes at 4° C. The supernatant (0.5M NaCl wash) is removed and saved; this supernatant contains the soluble form of P-selectin. Care is taken not to remove the top part of the pellet with the supernatant. The pellets are then homogenized in extraction buffer (TBS, 5 mM benzamidine, 5 mM EDTA, pH 7.5, 100 μM leupeptin, 2% Triton X-100). After centrifugation at 19,500 rpm for 25 minutes at 4° C., the supernatant is removed. The extraction procedure is repeated with the pellet and the supernatant is combined with the first supernatant. The combined extracts, which contain the membrane form of P-selectin, are adjusted to 0.5M NaCl.
The soluble fraction (0.5M NaCl wash) and the membrane extract (also adjusted to 0.5M NaCl) are absorbed with separate pools of the monoclonal antibody S12 (directed to P-selectin) previously coupled to Affigel (Biorad) at 5 mg/mL for 2 hours at 4° C. After letting the resins settle, the supernatants are removed. The S12 Affigel containing bound GMP-140 is then loaded into a column and washed overnight at 4° C. with 400 mL of 0.5M NaCl, 20 mM Tris pH 7.5, 0.01% Lubrol PX.
Bound P-selectin is eluted from the S12 Affigel with 100 mL of 80% ethylene glycol, 1 mM MES pH 6.0, 0.01% Lubrol PX. Peak fractions with absorbance at 280 nm are pooled. Eluates are dialyzed against TBS with 0.05% Lubrol, then applied to a Mono Q column (FPLC from Pharmacia). The concentrated protein is step eluted with 2M NaCl, 20 mM Tris pH 7.5 (plus 0.05% Lubrol PX for the membrane fraction). Peak fractions are dialyzed into TBS pH 7.5 (plus 0.05% Lubrol PX for the membrane fraction).
P-selectin is plated at 5 micrograms/mL and the control proteins: human serum albumin (Alb), platelet glycoprotein IIb/IIIa (IIb), von Willebrand factor (vWF), fibrinogen (FIB), thrombomodulin (TM), gelatin (GEL) or human serum (HS), are added at 50 micrograms/mL. […]

Each structure is given as a SMILES string. Residues, ends and D or L forms follow the SMILES beside them.

On to `CSCC[C@H](NC(=O)[C@@H](NC(=O)[C@@H](N)Cc1ccc(O)cc1)[C@@H](C)O)C(=O)N[C@@H](CC(C)C)C(=O)N[C@H](C(=O)N[C@@H](C)C(=O)N[C@@H](Cc1ccccc1)C(=O)N[C@@H](CCC(N)=O)C(N)=O)C(C)C` [YTMLVAFQ--NH2, Tyrosyl-threonyl-methionyl-leucyl-valyl-alanyl-phenylalanyl-glutamine-amide] (H-YTMLVAFQ-NH2), for which the 50% inhibitory concentration (IC50) (as a rule, the concentration at which inhibition is half-maximal) is 93 µM. To `CC[C@H](C)[C@H](NC(=O)[C@@H](CCc1ccccc1)NC(=O)[C@@H](NC(=O)[C@H](CC(C)C)NC(=O)[C@H](CCCCN)NC(=O)[C@@H](NC(=O)[C@H](Cc1ccc(O)cc1)NC(C)=O)[C@@H](C)O)C(C)C)C(=O)N[C@@H](CCC(N)=O)C(N)=O` [Ac--YTKLV--(D-homo-F)--IQ--NH2, Acetyl-tyrosyl-threonyl-lysyl-leucyl-valyl-(D-homo-phenylalanyl)-isoleucyl- glutamine-amide] (HELM PEPTIDE1{[ac].Y.T.K.L.V.[O=C([C@@H](CCc1ccccc1)N[*:1])[*:2]].I.Q.[am]}$$$$V2.0) belongs 26 µM.

Regarding `CC[C@@H](C)[C@@H](NC(=O)[C@@H](Cc1ccccc1)NC(=O)[C@H](NC(=O)[C@@H](CC(C)C)NC(=O)[C@@H](Cc1c[nH]cn1)NC(=O)CNC(=O)[C@H](N)CCCNC(=N)N)C(C)C)C(=O)N[C@H](CCC(N)=O)C(N)=O` [rGhlvfiq--NH2, D-arginyl-glycyl-D-histidyl-D-leucyl-D-valyl-D-phenylalanyl-D-isoleucyl-D-glutamine-amide] (HELM PEPTIDE1{[dR].G.[dH].[dL].[dV].[dF].[dI].[dQ].[am]}$$$$V2.0), the IC50 was found to be 270 µM. To `CC[C@H](C)[C@H](NC(=O)[C@H](Cc1ccccc1)NC(=O)[C@@H](NC(=O)[C@H](CC(C)C)NC(=O)[C@H](CCCCN)NC(=O)[C@@H](NC(=O)[C@@H](N)Cc1ccc(O)cc1)[C@@H](C)O)C(C)C)C(=O)N[C@@H](CCC(N)=O)C(N)=O` [YTKLVFIQ--NH2, Tyrosyl-threonyl-lysyl-leucyl-valyl-phenylalanyl-isoleucyl-glutamine-amide] (H-YTKLVFIQ-NH2) belongs 22 µM; to `CC[C@H](C)[C@H](NC(=O)[C@H](Cc1ccccc1)NC(=O)[C@@H](NC(=O)[C@H](CC(C)C)NC(=O)[C@H](CCCCN)NC(=O)[C@@H](NC(=O)[C@H](Cc1ccc(O)cc1)NC(C)=O)[C@@H](C)O)C(C)C)C(=O)N[C@@H](CCC(N)=O)C(N)=O` [Ac--YTKLVFIQ--NH2, Acetyl-tyrosyl-threonyl-lysyl-leucyl-valyl-phenylalanyl-isoleucyl-glutamine-amide] (Ac-YTKLVFIQ-NH2), 149 µM; to `CC[C@H](C)[C@H](NC(=O)[C@H](Cc1c[nH]cn1)NC(=O)[C@@H](NC(=O)[C@H](CC(C)C)NC(=O)[C@H](CCCCN)NC(=O)[C@@H](NC(=O)[C@H](Cc1ccc(O)cc1)NC(C)=O)[C@@H](C)O)C(C)C)C(=O)N[C@@H](CCC(N)=O)C(N)=O` [Ac--YTKLVHIQ--NH2, Acetyl-tyrosyl-threonyl-lysyl-leucyl-valyl-histidyl-isoleucyl-glutamine-amide] (Ac-YTKLVHIQ-NH2), 81 µM. Turning to `CC[C@H](C)[C@H](NC(=O)[C@H](C)NC(=O)[C@@H](NC(=O)[C@H](CCc1ccccc1)NC(=O)[C@H](CCCCN)NC(=O)[C@@H](NC(=O)[C@@H](N)Cc1ccc(O)cc1)[C@@H](C)O)C(C)C)C(=O)N[C@@H](CCC(N)=O)C(N)=O` [YTK--(homo-F)--VAIQ--NH2, Tyrosyl-threonyl-lysyl-(homo-phenylalanyl)-valyl-alanyl-isoleucyl-glutamine-amide] (HELM PEPTIDE1{Y.T.K.[O=C([C@H](CCc1ccccc1)N[*:1])[*:2]].V.A.I.Q.[am]}$$$$V2.0), the IC50 amounted to 52 µM. As for `CC[C@H](C)[C@H](NC(=O)[C@H](C)NC(=O)[C@@H](NC(=O)[C@H](Cc1ccccc1)NC(=O)[C@H](CCSC)NC(=O)[C@@H](NC(=O)[C@@H](N)Cc1ccc(O)cc1)[C@@H](C)O)C(C)C)C(=O)N[C@@H](CCC(N)=O)C(N)=O` [YTMFVAIQ--NH2, Tyrosyl-threonyl-methionyl-phenylalanyl-valyl-alanyl-isoleucyl-glutamine-amide] (H-YTMFVAIQ-NH2), the figure is 114 µM.

Take `CC[C@H](C)[C@H](NC(=O)[C@H](C)NC(=O)[C@@H](NC(=O)[C@H](Cc1ccccc1)NC(=O)[C@H](CCCCN)NC(=O)[C@@H](NC(=O)[C@@H](N)Cc1ccc(O)cc1)[C@@H](C)O)C(C)C)C(=O)N[C@@H](CCC(N)=O)C(N)=O` [YTKFVAIQ--NH2, Tyrosyl-threonyl-lysyl-phenylalanyl-valyl-alanyl-isoleucyl-glutamine-amide] (H-YTKFVAIQ-NH2): the IC50 came to 21 µM. As for `CC(=O)N[C@@H](Cc1ccc(O)cc1)C(=O)N[C@H](C(=O)N[C@@H](CCCCN)C(=O)N[C@@H](CC(C)C)C(=O)N[C@H](C(=O)N[C@@H](Cc1ccccc1)C(=O)N[C@@H](CCC(N)=O)C(=O)N[C@@H](CCC(N)=O)C(N)=O)C(C)C)[C@@H](C)O` [Ac--YTKLVFEQ--NH2, Acetyl-tyrosyl-threonyl-lysyl-leucyl-valyl-phenylalanyl-glutaminyl-glutamine-amide] (Ac-YTKLVFQQ-NH2), the figure is 99 µM; as for `CC[C@H](C)[C@H](NC(=O)[C@H](Cc1ccc(O)cc1)NC(=O)[C@@H](NC(=O)[C@H](CC(C)C)NC(=O)[C@H](Cc1c[nH]cn1)NC(=O)CNC(=O)[C@H](CCCNC(=N)N)NC(C)=O)C(C)C)C(=O)N[C@@H](CCC(N)=O)C(N)=O` [Ac--RGHLVYIQ--NH2, Acetyl-arginyl-glycyl-histidyl-leucyl-valyl-tyrosyl-isoleucyl-glutamine-amide] (Ac-RGHLVYIQ-NH2), 428 µM; as for `CC[C@H](C)[C@H](NC(=O)[C@H](C)NC(=O)[C@@H](NC(=O)[C@H](Cc1ccc(O)cc1)NC(=O)[C@H](CCCCN)NC(=O)[C@@H](NC(=O)[C@@H](N)Cc1ccc(O)cc1)[C@@H](C)O)C(C)C)C(=O)N[C@@H](CCC(N)=O)C(N)=O` [YTKYVAIQ--NH2, Tyrosyl-threonyl-lysyl-tyrosyl-valyl-alanyl-isoleucyl-glutamine-amide] (H-YTKYVAIQ-NH2), 64 µM.
